Key:
SH-SY5Y neuronal cells = assay: TNF-α-induced damage in SH-SY5Y cells (Hoechst 33342 live cell staining); assay type: cell-based; details: 60 ng/ml TNF-α, 48 hours; YN-011 10, 100, 500 nM; GABA 1, 10, 100 μM; combination 100 μM GABA + 100 nM YN-011
Procedure: Digest the SH-SY5Y neuronal cells in a 10 cm culture dish using 0.25% trypsin to prepare a single-cell suspension. Seed the single-cell suspension into a 24-well plate. Place the culture plate in a CO2 incubator and pre-culture overnight at 37° C. with 5% CO2 to allow the cells to adhere. Treat the cells in each well with 20, 40, 60, or 80 ng/ml TNF-α using medium containing 5% FBS at 37° C. for 48 hours. Each drug treatment is performed in three replicate wells. Add the fluorescent dye Hoechst 33342 (Beyotime) at a dilution of 1:1000 to the wells, and incubate the plate at 37° C. for 10 minutes. Remove the culture medium, gently wash twice with PBS, and immediately take the plate to a fluorescence microscope for imaging (20× magnification). Capture 10 fields of view for each cell well and count the number of blue-stained positive cells in each field of view.
Please refer to section 8.7 for the experimental procedure, but the drug treatment in this experiment is different from that in section 8.7. In this experiment, the drug treatment is as follows: using medium containing 5% FBS, treat the cells in each well with 60 ng/ml TNF-α alone or co-treated with 10, 100, or 500 nM YN-011 at 37° C. for 48 hours. Each drug treatment is performed in three replicate wells. […]

HMC3 microglial cells = assay: Inflammatory factor expression in HMC3 microglial cells induced by Aβ1-42 oligomers (western blot); assay type: cell-based, human; details: for expression of TNF-α (protein) / expression of IL-6 (protein): 10 μM Aβ1-42 oligomers, 48 hours, YN-011 100 nM and 500 nM, combination 100 μM GABA and 100 nM YN-011; for expression of TNF-α (protein): GABA 10 µM and 100 μM; for expression of IL-6 (protein): GABA 100 μM; for inflammatory cytokine expression: Aβ1-42 oligomers (figure legends)
Procedure: Seed HMC3 human microglial cells into a 12-well plate. After overnight incubation at 37° C. with 5% CO2, treat the cells in each well with 10 μM Aβ1-42 oligomers alone or co-treated with 1, 10, or 100 μM GABA for 48 hours. Each drug treatment is performed in three replicate wells. After 48 hours of treatment, wash the cells with PBS and lyse the cells in RIPA buffer supplemented with protease inhibitor and phosphatase inhibitor on ice for 15 minutes. Centrifuge the cell lysate at 14,000 rpm for 30 minutes. Collect the supernatant, mix with 5× loading buffer supplemented with β-mercaptoethanol, and boil at 100° C. for 10 minutes. Separate denatured proteins by SDS-PAGE. Briefly, load 10 μg of protein onto precast mini polyacrylamide gels (SurePAGE, GenScript #M00657) and run at 120 V voltage. Subsequently, transfer the gel onto a PVDF membrane (0.22 μm pore size) at 200 mA for 90 minutes. After […], incubate the membrane at room temperature with primary antibodies diluted in 5% milk solution (TNF-α, Proteintech #60291-Ig; IL-6, Proteintech #21865-1-AP; HSP90, Proteintech #13171-1-AP) overnight at 4° C. After washing, incubate the membrane with corresponding secondary antibodies (Jackson Lab, 1:10000) at room temperature for 1 hour. After washing, visualize the antibody signals on the membrane using an ECL kit (Millipore #WBKLS0500) following the manufacturer's instructions. Calculate the relative protein levels normalized to the endogenous protein HSP90 using ImageJ.
(§1) Please refer to section 8.20 for the experimental procedure, but the drug treatment in this experiment is different from that in section 8.20. In this experiment, the drug treatment is as follows: treat the cells in each well with 10 μM Aβ1-42 oligomers alone or co-treated with 10, 100, or 500 nM YN-011 for 48 hours. Each drug treatment is performed in three replicate wells.
as §1, with “100 μM GABA and/or 100” for “10, 100, or 500”

NCCCC(=O)O [GABA, γ-aminobutyric acid]
TNF-α-induced damage in neuronal cells (Hoechst 33342 positive cells) (SH-SY5Y neuronal cells): protective effect | expression of TNF-α (protein) (HMC3 microglial cells): significantly reduce | expression of IL-6 (protein) (HMC3 microglial cells): significantly reduces | inflammatory cytokine expression (HMC3 microglial cells): reduction of inflammatory cytokine expression

B1: YN-011: GLP-1 fusion protein of SEQ ID NO: 7: GLP-1 (A8G, G22E, R36G), linker peptide and IgG2/Fc domain (C222S, A330S, P331S) (protein)
chain: HGEGTFTSDVSSYLEEQAAKEFIAWLVKGGGSSGAPPPSGGGGSERKSCVECPPCPAPPVAGPSVFLFPPKPKDTLMISRTPEVTCVVVDVSHEDPEVQFNWYVDGVEVHNAKTKPREEQFNSTFRVVSVLTVVHQDWLNGKEYKCKVSNKGLPSSIEKTISKTKGQPREPQVYTLPPSREEMTKNQVSLTCLVKGFYPSDIAVEWESNGQPENNYKTTPPMLDSDGSFFLYSKLTVDKSRWQQGNVFSCSVMHEALHNHYTQKSLSLSPG
TNF-α-induced damage in neuronal cells (Hoechst 33342 positive cells) (SH-SY5Y neuronal cells): protective effect | expression of TNF-α (protein) (HMC3 microglial cells): significantly reduce | expression of IL-6 (protein) (HMC3 microglial cells): significantly reduce | inflammatory cytokine expression (HMC3 microglial cells): reduction of inflammatory cytokine expression
